Laboratory results as given in ChEMBL document CHEMBL1121482, “Prevention of Ames test mutagenicity by chemical modification in a series of monoamine oxidase inhibitors” (J Med Chem, 1980).

Key:
Salmonella typhimurium [1] = assay: Ames test averaged in revertants/plate with Salmonella Typhimurium TA98 at 0.50 mg/plate; format: functional, Salmonella enterica subsp. enterica serovar Typhimurium
Salmonella typhimurium [2] = assay: Ames test averaged in revertants/plate with Salmonella Typhimurium TA98 at 1.0 mg/plate; format: functional, Salmonella enterica subsp. enterica serovar Typhimurium
Salmonella typhimurium [3] = assay: Ames test averaged in revertants/plate with Salmonella Typhimurium TA98 at 0.25 mg/plate; format: functional, Salmonella enterica subsp. enterica serovar Typhimurium
Salmonella typhimurium [4] = assay: Ames test averaged in revertants/plate with Salmonella Typhimurium TA1538 at 0.50 mg/plate; format: functional, Salmonella enterica subsp. enterica serovar Typhimurium
Salmonella typhimurium [5] = assay: Ames test averaged in revertants/plate with Salmonella Typhimurium TA98 at 0.13 mg/plate; format: functional, Salmonella enterica subsp. enterica serovar Typhimurium
[6] = Partition coefficient (logP); format: physicochemical; settings: octanol/water
Salmonella typhimurium [7] = assay: Ames test averaged in revertants/plate with Salmonella Typhimurium TA1538 at 1.0 mg/plate; format: functional, Salmonella enterica subsp. enterica serovar Typhimurium
Salmonella typhimurium [8] = assay: Ames test averaged in revertants/plate with Salmonella Typhimurium TA1538 at 0.25 mg/plate; format: functional, Salmonella enterica subsp. enterica serovar Typhimurium
Salmonella typhimurium [9] = assay: Ames test averaged in revertants/plate with Salmonella Typhimurium TA1538 at 0.13 mg/plate; format: functional, Salmonella enterica subsp. enterica serovar Typhimurium
Salmonella typhimurium [10] = assay: Ames test averaged in reverts/plate with Salmonella Typhimurium TA1538 at 0.13 mg/plate; format: functional, Salmonella enterica subsp. enterica serovar Typhimurium
Salmonella typhimurium [11] = assay: Ames test averaged in revertants/plate with Salmonella Typhimurium TA98 at 0.1 mg/plate; format: functional, Salmonella enterica subsp. enterica serovar Typhimurium
Salmonella typhimurium [12] = assay: Ames test averaged in revertants/plate with Salmonella Typhimurium TA98 at 5 mg/plate; format: functional, Salmonella enterica subsp. enterica serovar Typhimurium
Salmonella typhimurium [13] = assay: Ames test averaged in revertants/plate with Salmonella Typhimurium TA98 at 2.5 mg/plate; format: functional, Salmonella enterica subsp. enterica serovar Typhimurium
Salmonella typhimurium [14] = assay: Ames test averaged in revertants/plate with Salmonella Typhimurium TA1538 at 0.1 mg/plate; format: functional, Salmonella enterica subsp. enterica serovar Typhimurium
Salmonella typhimurium [15] = assay: Ames test averaged in revertants/plate with Salmonella Typhimurium TA1538 at 5 mg/plate; format: functional, Salmonella enterica subsp. enterica serovar Typhimurium
Salmonella typhimurium [16] = assay: Ames test averaged in revertants/plate with Salmonella Typhimurium TA1538 at 2.5 mg/plate; format: functional, Salmonella enterica subsp. enterica serovar Typhimurium
Salmonella typhimurium [17] = assay: Ames test averaged in revertants/plate with Salmonella Typhimurium TA98 at 0.5 mg/plate; format: functional, Salmonella enterica subsp. enterica serovar Typhimurium
Salmonella typhimurium [18] = assay: Ames test averaged in revertants/plate with Salmonella Typhimurium TA1538 at 0.5 mg/plate; format: functional, Salmonella enterica subsp. enterica serovar Typhimurium

SMILES	Revertants/plate (Salmonella typhimurium [1])	Revertants/plate (Salmonella typhimurium [2])	Revertants/plate (Salmonella typhimurium [3])	Revertants/plate (Salmonella typhimurium [4])	Revertants/plate (Salmonella typhimurium [5])	logP [6]	Revertants/plate (Salmonella typhimurium [7])	Revertants/plate (Salmonella typhimurium [8])	Revertants/plate (Salmonella typhimurium [9])	Revertants/plate (Salmonella typhimurium [10])	Revertants/plate (Salmonella typhimurium [11])	Revertants/plate (Salmonella typhimurium [12])	Revertants/plate (Salmonella typhimurium [13])	Revertants/plate (Salmonella typhimurium [14])	Revertants/plate (Salmonella typhimurium [15])	Revertants/plate (Salmonella typhimurium [16])	Revertants/plate (Salmonella typhimurium [17])	Revertants/plate (Salmonella typhimurium [18])
CCc1ccc2c(c1)C(=O)c1ccc(NC(C)=O)cc1S2(=O)=O	0	0	0	1	0	3.44	2	0	1	–	–	–	–	–	–	–	–	–
CC(=O)Nc1ccc2c(c1)S(=O)(=O)c1ccc(C)cc1C2=O	0	8	0	0	1	2.76	5	2	0	–	–	–	–	–	–	–	–	–
CC(=O)Nc1ccc2c(c1)[nH]c1ccccc12	468	456	732	699	725	3.02	775	762	679	–	–	–	–	–	–	–	–	–
CC(=O)Nc1ccc2c(c1)S(=O)(=O)c1ccccc1-2	2	4	0	2	0	–	2	0	–	0	–	–	–	–	–	–	–	–
CC(=O)Nc1ccc2c(c1)S(=O)(=O)c1ccccc1C2=O	–	–	–	–	–	2.35	–	–	–	–	0	0	0	0	0	0	0	0
CCCc1ccc2c(c1)C(=O)c1ccc(NC(C)=O)cc1S2(=O)=O	0	0	0	0	0	3.51	0	0	0	–	–	–	–	–	–	–	–	–
